Reference: US20260285850A1, “SUBSTITUTED OXAZOLIDINONES AND IMIDAZOLINONES AS HERBICIDES” (FMC CORPORATION, priority 2023, published 2026)

Tests used:
Type in all cases: in vivo
[1] = tested on: kochia (Bassia scoparia); assay: Test A postemergence application, visual injury rating 0-100
Outline: (§1)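 Directed preemergence spray onto seeded soil or postemergence spray onto 2-10 cm plants (loam plus sand); compound carried in surfactant-containing non-phytotoxic solvent. Injury rated by eye after 10 d greenhouse growth; 0 = no effect, 100 = complete control.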

[2] = tested on: galium (catchweed bedstraw, Galium aparine); assay: as above
Outline: as §1

[3] = tested on: blackgrass (Alopecurus myosuroides); assay: as above
Outline: as §1

[4] = tested on: palmer (palmer amaranth, palmer pigweed, Amaranthus palmeri); assay: as above
Outline: as §1

[5] = tested on: ryegrass, Italian (italian ryegrass, Lolium multiflorum); assay: as above
Outline: as §1

[6] = tested on: wheat (Triticum aestivum); assay: as above
Outline: as §1

[7] = tested on: corn (Zea mays); assay: as above
Outline: as §1

[8] = tested on: green foxtail (Setaria viridis); assay: as above
Outline: as §1

[9] = tested on: horseweed (Erigeron canadensis); assay: as above
Outline: as §1

[10] = tested on: oat, wild (wild oat, Avena fatua); assay: as above
Outline: as §1

[11] = tested on: soybean (Glycine max); assay: as above
Outline: as §1

[12] = tested on: ragweed (common ragweed, Ambrosia artemisiifolia); assay: as above
Outline: as §1

[13] = tested on: barnyardgrass (Echinochloa crus-galli); assay: as above
Outline: as §1

[14] = tested on: sedge, umbrella (small-flower umbrella sedge, Cyperus difformis); assay: Test B flooded paddy test, visual plant response rating 0-100; conditions: 250 g ai/ha, Flood, applied to paddy water, evaluated after 13 days
Outline: (§2)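 2-leaf plants; flood 3 cm over soil; compound dosed into paddy water; depth kept constant; greenhouse 13 d; visual scoring vs controls. Dash = no result.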

[15] = tested on: barnyardgrass (Echinochloa crusgalli); assay: as above; conditions: 250 g ai/ha, Flood, applied to paddy water, evaluated after 13 days
Outline: as §2

[16] = tested on: ducksalad (Heteranthera limosa); assay: as above; conditions: 250 g ai/ha, Flood, applied to paddy water, evaluated after 13 days
Outline: as §2

[17] = tested on: rice (Oryza sativa); assay: as above; conditions: 250 g ai/ha, Flood, applied to paddy water, evaluated after 13 days
Outline: as §2

[18] = tested on: kochia (Bassia scoparia); assay: Test A preemergence soil spray, visual injury rating 0-100; conditions: 10 days
Outline: as §1

[19] = tested on: blackgrass (Alopecurus myosuroides); assay: as above; conditions: 10 days
Outline: as §1

[20] = tested on: palmer (palmer amaranth, palmer pigweed, Amaranthus palmeri); assay: as above; conditions: 10 days
Outline: as §1

[21] = tested on: ryegrass, Italian (italian ryegrass, Lolium multiflorum); assay: as above; conditions: 10 days
Outline: as §1

[22] = tested on: wheat (Triticum aestivum); assay: as above; conditions: 10 days
Outline: as §1

[23] = tested on: corn (Zea mays); assay: as above; conditions: 10 days
Outline: as §1

[24] = tested on: green foxtail (Setaria viridis); assay: as above; conditions: 10 days
Outline: as §1

[25] = tested on: oat, wild (wild oat, Avena fatua); assay: as above; conditions: 10 days
Outline: as §1

[26] = tested on: soybean (Glycine max); assay: as above; conditions: 10 days
Outline: as §1

[27] = tested on: ragweed (common ragweed, Ambrosia artemisiifolia); assay: as above; conditions: 10 days
Outline: as §1

[28] = tested on: barnyardgrass (Echinochloa crus-galli); assay: as above; conditions: 10 days
Outline: as §1

[29] = 62 g ai/ha, postemergence, 10 days, 0 = no effect, 100 = complete control
[30] = Postemergence, 16 g ai/ha, greenhouse 10 days, 0 no effect, 100 complete control
[31] = 62 g ai/ha, 0 = no effect, 100 = complete control

C=CC1(C(=O)NC2CC(C(=O)OC)C2)CN(c2cc(F)cc(F)c2)C(=O)O1 (stereo not shown) [Compound 175]
100: Ryegrass, Italian plant response rating (0-100) [5, 29]
20: Corn plant response rating (0-100) [7, 29]
0: Kochia plant response rating (0-100) [1, 29] | Kochia plant response rating (0 to 100 scale) [1, 30] | Pigweed, Palmer plant response rating (0 to 100 scale) [4, 30] | Corn plant response rating (0 to 100 scale) [7, 30] | Horseweed plant response rating (0-100) [9, 29] | Horseweed plant response rating (0 to 100 scale) [9, 30] | Soybean plant response rating (0 to 100 scale) [11, 30] | Ragweed plant response rating (0-100) [12, 29] | Ragweed plant response rating (0 to 100 scale) [12, 30] | Barnyardgrass plant response rating (0 to 100 scale) [13, 30] | Plant response rating, Sedge, Umbrella (0 to 100 scale, 0 is no effect and 100 is complete control) [14] | Plant response rating, Barnyardgrass (0 to 100 scale, 0 is no effect and 100 is complete control) [15] | Plant response rating, Ducksalad (0 to 100 scale, 0 is no effect and 100 is complete control) [16] | Plant response rating, Rice (0 to 100 scale, 0 is no effect and 100 is complete control) [17] | Kochia plant response rating ([18]; 16 g ai/ha, 0 to 100 scale) | Kochia plant response rating (0-100) [18, 31] | Pigweed, Palmer plant response rating ([20]; 16 g ai/ha, 0 to 100 scale) | Pigweed, Palmer plant response rating (0-100) [20, 31] | Corn plant response rating ([23]; 16 g ai/ha, 0 to 100 scale) | Corn plant response rating (0-100) [23, 31] | Foxtail, Green plant response rating ([24]; 16 g ai/ha, 0 to 100 scale) | Oat, Wild plant response rating ([25]; 16 g ai/ha, 0 to 100 scale) | Oat, Wild plant response rating (0-100) [25, 31] | Soybean plant response rating ([26]; 16 g ai/ha, 0 to 100 scale) | Soybean plant response rating (0-100) [26, 31] | Ragweed plant response rating ([27]; 16 g ai/ha, 0 to 100 scale) | Ragweed plant response rating (0-100) [27, 31] | Barnyardgrass plant response rating ([28]; 16 g ai/ha, 0 to 100 scale)
10: Pigweed, Palmer plant response rating (0-100) [4, 29] | Ryegrass, Italian plant response rating ([21]; 16 g ai/ha, 0 to 100 scale)
90: Galium plant response rating (0-100) [2, 29] | Galium plant response rating (0 to 100 scale) [2, 30] | Blackgrass plant response rating (0-100) [3, 29] | Foxtail, Green plant response rating (0-100) [8, 29] | Ryegrass, Italian plant response rating (0-100) [21, 31] | Wheat plant response rating (0-100) [22, 31] | Foxtail, Green plant response rating (0-100) [24, 31]
80: Oat, Wild plant response rating (0-100) [10, 29]
50: Barnyardgrass plant response rating (0-100) [28, 31]
70: Ryegrass, Italian plant response rating (0 to 100 scale) [5, 30] | Wheat plant response rating (0-100) [6, 29] | Barnyardgrass plant response rating (0-100) [13, 29]
40: Blackgrass plant response rating ([19]; 16 g ai/ha, 0 to 100 scale) | Wheat plant response rating ([22]; 16 g ai/ha, 0 to 100 scale)
60: Blackgrass plant response rating (0 to 100 scale) [3, 30] | Oat, Wild plant response rating (0 to 100 scale) [10, 30] | Soybean plant response rating (0-100) [11, 29] | Blackgrass plant response rating (0-100) [19, 31]
30: Wheat plant response rating (0 to 100 scale) [6, 30] | Foxtail, Green plant response rating (0 to 100 scale) [8, 30]
